Source: publication PMC10600239, “Selective MCL-1 inhibitor ABBV-467 is efficacious in tumor models but is associated with cardiac troponin increases in patients” (Communications Medicine, 2023)

Test system: troponin
Assay: Troponin monitoring in phase 1 patients
Type: in vivo, human
Details: for Troponin I, Local Lab: reference range 2.3 to 20 ng/L
Description: Blood samples for plasma ABBV-467 concentration analysis were collected on days 1, 2, 3, and 15–17 of cycle 1 as well as on days 1 of cycles for PK analysis. Plasma samples of ABBV-467 were quantified using a validated LC-tandem MS with a lower limit of detection of 3 ng/mL. ABBV-467 PK parameters were calculated using standard non-compartmental approaches with Phoenix, WinNonlin (Version 8.0, Certara). AE severity was graded according to the National Cancer Institute Common Terminology Criteria for Adverse Events v5.0 for up to 30 days after the last dose. Analyses of AEs will include only treatment-emergent AEs. Triplicate ECGs were performed on days 1, 2, 15, and 16 of cycle 1. […] An echocardiogram was performed at screening and day 1 of cycle 2 and cycle 6. […]
Creatine Phosphokinase and Troponin Enzymes
Blood samples will be collected on the days specified in Section 2 for analysis of creatine phosphokinase and troponin serum concentrations. Clinical significance of these enzymes will be evaluated within the […]
context of the study. Samples should also be obtained as clinically indicated in the opinion of the investigator.
Table 9. Creatine Phosphokinase and Troponin Sampling Times […]
4, 8, 24, and 48 hours post-EOI
4, 8, 24 and 48 hours post-EOI
Sample times are relative to ABBV-467 infusion. […]

## Cc1c(Cl)c2c(Cl)c(C)c1-c1c(-c3ccc(F)cc3)sc3ncnc(c13)O[C@@H](C(=O)O)Cc1cc(ccc1OCc1ccnc(-c3ccc(OC[C@H]4COCCO4)cc3)n1)OC[C@@H](CN1CCN(C)CC1)O2 [ABBV-467]
Patient 1, C1D1, study day 1, reference range ≤ 0.04 ng/mL, Advia Centaur TnI-Ultra Assay
  Troponin I, Central Laboratory: <0.03 ng/mL
Patient 1, C1D2, study day 2, reference range ≤ 0.04 ng/mL
  Troponin I, Central Laboratory: <0.03 ng/mL
Patient 1, C1D15, study day 15, reference range ≤ 0.04 ng/mL
  Troponin I, Central Laboratory: <0.03 ng/mL
Patient 1, C1D16, study day 16, reference range ≤ 0.04 ng/mL
  Troponin I, Central Laboratory: <0.03 ng/mL
Patient 1, C1D17, study day 17, reference range ≤ 0.04 ng/mL
  Troponin I, Central Laboratory: <0.03 ng/mL
Patient 2, C1D1, study day 1, reference range ≤0.04 ng/mL
  Troponin I, Central Lab: <0.03 ng/mL
Patient 2, C1D2, study day 2, reference range ≤0.04 ng/mL
  Troponin I, Central Lab: <0.03 ng/mL
Patient 2, C1D3, study day 3, reference range ≤0.04 ng/mL
  Troponin I, Central Lab: <0.03 ng/mL
Patient 2, C1D8, study day 8, reference range ≤0.04 ng/mL
  Troponin I, Central Lab: <0.03 ng/mL
Patient 2, C1D16, study day 16, 4 hr postdose, reference range ≤0.04 ng/mL
  Troponin I, Central Lab: 0.24 (4 hr postdose) ng/ml
Patient 2, C1D16, study day 16, 8 hr postdose, reference range ≤0.04 ng/mL
  Troponin I, Central Lab: <0.03 (8 hr postdose) ng/ml
Patient 2, C1D17, study day 17, reference range ≤0.04 ng/mL
  Troponin I, Central Lab: 0.15 ng/mL
Patient 2, C1D18, study day 18, reference range ≤0.04 ng/mL
  Troponin I, Central Lab: 0.08 ng/mL
Patient 3, C1D1, study day 1, Beckman Coulter ACCESS high sensitivity Troponin I assay
  Troponin I, Local Lab: 8.1 ng/L
Patient 3, C1D1, study day 1, reference range ≤ 0.04 ng/mL
  Troponin I, Central Lab: <0.03 ng/mL
Patient 3, C1D2, study day 2
  Troponin I, Local Lab: 7.3 ng/L
Patient 3, C1D2, study day 2, reference range ≤ 0.04 ng/mL
  Troponin I, Central Lab: <0.03 ng/mL
Patient 3, C1D3, study day 3
  Troponin I, Local Lab: 10.2 ng/L
Patient 3, C1D3, study day 3, reference range ≤ 0.04 ng/mL
  Troponin I, Central Lab: <0.03 ng/mL
Patient 3, C1D4, study day 4
  Troponin I, Local Lab: 7.4 ng/L
Patient 3, C1D5, study day 5
  Troponin I, Local Lab: 7.3 ng/L
Patient 3, C1D9, study day 9
  Troponin I, Local Lab: 7.8 ng/L
Patient 3, C1D11, study day 11
  Troponin I, Local Lab: 37.7 ng/L
Patient 3, C1D12, study day 12
  Troponin I, Local Lab: 27.2 ng/L
Patient 3, C1D12, study day 12, reference range ≤ 0.04 ng/mL
  Troponin I, Central Lab: 0.05 ng/mL
Patient 3, C1D15 (No infusion; drug discontinued), study day 15
  Troponin I, Local Lab: 16.5 ng/L
Patient 4, C1D1, study day 1, 4hr postdose, reference range ≤ 0.04 ng/mL
  Troponin I, Central Lab: <0.03 (4hr postdose) ng/ml
Patient 4, C1D1, study day 1, 8hr postdose, reference range ≤ 0.04 ng/mL
  Troponin I, Central Lab: <0.03 (8hr postdose) ng/ml
Patient 4, C1D1, study day 1, predose, reference range ≤ 0.04 ng/mL
  Troponin I, Central Lab: <0.03 (predose) ng/ml
Patient 4, C1D2, study day 2, reference range ≤ 0.04 ng/mL
  Troponin I, Central Lab: <0.03 ng/mL
Patient 4, C1D3, study day 3, reference range ≤ 0.04 ng/mL
  Troponin I, Central Lab: <0.03 ng/mL
Patient 4, C1D15, study day 15, 4 hr postdose, reference range ≤ 0.04 ng/mL
  Troponin I, Central Lab: 0.06 (4 hr postdose) ng/ml
Patient 4, C1D15, study day 15, 8 hr postdose, reference range ≤ 0.04 ng/mL
  Troponin I, Central Lab: 0.04 ( 8 hr postdose) ng/ml
Patient 4, C1D15, study day 15, predose, reference range ≤ 0.04 ng/mL
  Troponin I, Central Lab: 0.04 (predose) ng/ml
Patient 4, C1D16, study day 16, reference range ≤ 0.04 ng/mL
  Troponin I, Central Lab: 0.04 ng/mL
Patient 4, C1D17, study day 17, reference range ≤ 0.04 ng/mL
  Troponin I, Central Lab: 0.05 ng/mL
Patient 4, C2D1, study day 29, postdose, reference range ≤ 0.04 ng/mL
  Troponin I, Central Lab: <0.03 (postdose) ng/ml
Patient 5, C1D1 4hr Post EOI, study day 1, reference range ≤0.04 ng/mL
  Troponin I, Central Laboratory: <0.03 ng/mL
Patient 5, C1D1 8hr post EOI, study day 1, reference range ≤0.04 ng/mL
  Troponin I, Central Laboratory: <0.03 ng/mL
Patient 5, C1D1 Predose, study day 1, reference range ≤0.04 ng/mL
  Troponin I, Central Laboratory: <0.03 ng/mL
Patient 5, C1D2 24h post EOI, study day 2, reference range ≤0.04 ng/mL
  Troponin I, Central Laboratory: <0.03 ng/mL
Patient 5, C1D3 48hr Post EOI, study day 3, reference range ≤0.04 ng/mL
  Troponin I, Central Laboratory: <0.03 ng/mL
Patient 5, C1D15 4hr Post EOI, study day 15, reference range ≤0.04 ng/mL
  Troponin I, Central Laboratory: <0.03 ng/mL
Patient 5, C1D15 8h post EOI, study day 15, reference range ≤0.04 ng/mL
  Troponin I, Central Laboratory: <0.03 ng/mL
Patient 5, C1D15 Predose, study day 15, reference range ≤0.04 ng/mL
  Troponin I, Central Laboratory: <0.03 ng/mL
Patient 5, C1D16 24h post EOI, study day 16, reference range ≤0.04 ng/mL
  Troponin I, Central Laboratory: <0.03 ng/mL
Patient 5, C1D17 48hr Post EOI, study day 17, reference range ≤0.04 ng/mL
  Troponin I, Central Laboratory: <0.03 ng/mL
Patient 6, C1D1 4hr Post EOI, study day 1, reference range ≤0.04 ng/mL
  Troponin I, Central Laboratory: <0.03 ng/mL
Patient 6, C1D1 8hr post EOI, study day 1, reference range ≤0.04 ng/mL
  Troponin I, Central Laboratory: <0.03 ng/mL
Patient 6, C1D1 Predose, study day 1, reference range ≤0.04 ng/mL
  Troponin I, Central Laboratory: <0.03 ng/mL
